Assay results reported in PMC3333808 (Cell Reports, 2012).

Tests used:
SecYEG [1] = target: T1, SecYEG (Escherichia coli, UniProt P0AG96+P0AG99+P0AGA2); assay type: binding; conditions: 1.65 μM SecYEG, 3.2 mg/ml E. coli polar lipids, 10 μM peptide; reisolated by centrifugation; SDS-PAGE, silver staining; Figure 1D
T1 sequence (P0AGA2 1-443): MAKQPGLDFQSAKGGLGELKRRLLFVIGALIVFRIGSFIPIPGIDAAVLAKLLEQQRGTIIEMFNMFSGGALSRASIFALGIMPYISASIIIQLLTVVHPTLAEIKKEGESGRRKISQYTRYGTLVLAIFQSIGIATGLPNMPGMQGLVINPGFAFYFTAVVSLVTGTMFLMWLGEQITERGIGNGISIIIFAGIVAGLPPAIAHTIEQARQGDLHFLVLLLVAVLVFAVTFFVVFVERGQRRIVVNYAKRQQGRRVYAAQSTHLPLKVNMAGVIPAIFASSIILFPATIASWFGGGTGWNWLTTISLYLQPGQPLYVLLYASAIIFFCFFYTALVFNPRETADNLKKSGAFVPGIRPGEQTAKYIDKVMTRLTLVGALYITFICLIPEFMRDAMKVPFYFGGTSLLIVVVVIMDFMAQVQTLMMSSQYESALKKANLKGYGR
T1 sequence (P0AG96 1-127 partner): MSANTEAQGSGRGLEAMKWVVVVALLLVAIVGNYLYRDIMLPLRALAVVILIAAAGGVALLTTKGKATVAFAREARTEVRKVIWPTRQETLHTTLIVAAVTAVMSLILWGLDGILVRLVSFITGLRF
T1 sequence (P0AG99 1-110 partner): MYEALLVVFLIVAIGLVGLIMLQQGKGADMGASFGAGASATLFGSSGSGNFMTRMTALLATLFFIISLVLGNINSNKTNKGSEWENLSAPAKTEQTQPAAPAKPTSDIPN

SecYEG [2] = conditions: dimer vs monomer; ref Deville et al., 2011; cited from earlier work
SecYEG [3] = target: T1, SecYEG; experiment: SecA/ATP-driven translocation of preprotein proOmpA into SecYEG proteoliposomes; assay type: biochemical; conditions: proteoliposomes containing SecYEG; 0.7 μM proOmpA; 25°C, pH 7.5; proteinase K protection, western blot; Figures 1A and 1B
SecYEG [4] = target: T1, SecYEG; experiment: Translocation of OmpA into vesicles coreconstituted with SecYEG and peptide; assay type: biochemical; conditions: vesicles reisolated from excess unbound peptide; western blot; n = 8; Figure 1E
trypsin = experiment: Resistance of peptide in SecYEG 2D crystals to trypsin; assay type: in vitro ADME; conditions: 1:100 (w/w) trypsin, 20 min, room temperature; Coomassie-stained SDS-PAGE; Figure 1F
SecA = conditions: synthetic LamB signal peptide; ref Gelis et al., 2007; cited from earlier work
SecYEG [5] = conditions: membranes containing SecYEG; ref Simon and Blobel, 1992; cited from earlier work
SecYEG complex [6] = target: T2, SecYEG complex (E. coli, UniProt P0AGA2 1-443; P0AG96 1-127; P0AG99 1-110); experiment: co-sedimentation
T2 sequence (looked up) 1: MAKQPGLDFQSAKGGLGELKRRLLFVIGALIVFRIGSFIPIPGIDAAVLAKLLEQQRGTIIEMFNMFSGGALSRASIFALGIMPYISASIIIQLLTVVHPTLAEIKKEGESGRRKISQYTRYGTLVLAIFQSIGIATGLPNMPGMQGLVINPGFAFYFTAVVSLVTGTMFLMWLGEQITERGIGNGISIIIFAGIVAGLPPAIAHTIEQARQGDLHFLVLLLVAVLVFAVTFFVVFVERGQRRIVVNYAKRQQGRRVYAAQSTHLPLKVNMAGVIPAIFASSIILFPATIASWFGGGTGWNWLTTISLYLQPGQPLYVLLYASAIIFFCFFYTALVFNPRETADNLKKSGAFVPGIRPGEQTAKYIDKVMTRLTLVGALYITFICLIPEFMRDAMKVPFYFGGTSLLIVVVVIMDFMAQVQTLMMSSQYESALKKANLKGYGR
T2 sequence (looked up) 2: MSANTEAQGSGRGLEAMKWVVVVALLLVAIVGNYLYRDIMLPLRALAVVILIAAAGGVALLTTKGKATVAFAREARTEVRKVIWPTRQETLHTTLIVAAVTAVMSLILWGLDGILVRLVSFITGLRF
T2 sequence (looked up) 3: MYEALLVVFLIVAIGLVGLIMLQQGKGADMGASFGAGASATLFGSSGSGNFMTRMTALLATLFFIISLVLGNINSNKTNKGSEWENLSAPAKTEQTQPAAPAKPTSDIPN

SecYEG complex [7] = target: T2, SecYEG complex; experiment: cryo-EM structure

MMITLRKLP-(ΔLAVA)-VAAGVMSAQAYA-VDFHGYARSGIGWTG [SSΔ4-β1]
peptide retained following coreconstitution with SecYEG (SecYEG [1]): but not SSΔ4-β1, were retained following coreconstitution with SecYEG

SecA: ATPase that associates peripherally with the protein-channel complex SecYEG
affinity of SecA for the SecYEG dimer over the monomer (SecYEG [2]): 10 fold

MMITLRKLPLAVAVAAGVMSAQAYA-VDFHGYARSGIGWTG [SS-β1]
inhibition of SecA/ATP-driven translocation of proOmpA (SecYEG [3]): quantitatively inhibits
peptide retained following coreconstitution with SecYEG (SecYEG [1]): retained following coreconstitution with SecYEG
translocation of OmpA after coreconstitution of SecYEG with peptide (SecYEG [4]): permitted the translocation of OmpA
resistance to proteolysis by trypsin in SecYEG 2D crystals (trypsin): resistance to proteolysis

MMITLRKLPLAVAVAAGVMSAQAYA [SS]
peptide retained following coreconstitution with SecYEG (SecYEG [1]): retained following coreconstitution with SecYEG
translocation of OmpA after coreconstitution of SecYEG with peptide (SecYEG [4]): permitted the translocation of OmpA
effect of association with SecA on protein translocation (SecA): competitive inhibition of protein translocation
channel opening (SecYEG [5]): opens channels in membranes containing SecYEG

MMITLRKLPLAVAVAAGVMSAQAYA [LamB signal sequence peptide (SS)]
binding result (SecYEG complex [6]): binds

MMITLRKLPLAVAVAAGVMSAQAYAVDFHGYARSGIGWTG [LamB signal sequence plus the first β strand peptide (SS-β1)]
stoichiometry N (SecYEG complex [7]): 1 substrate per SecYEG dimer
